In publication PMC9300104 (2021):

Experiments:
[1] = tested on: Gdn13 G44A (RNA, riboswitch) GGGGACGACCCCA; experiment: 1H-1D NMR, chemical shift perturbation; conditions: 5 mM Mg2+, 50 mM KCl; 25 mM potassium phosphate, pH 6.2, room temperature, 20 μM RNA, 1 mM Gdm+
[2] = tested on: Gdn49 P2mut (G44A, AA) (RNA, riboswitch) GGUUUGCAGGACGACCUGCAAACGCCUCUUUUCACCGGGGACGACCCCA; experiment: 1H-1D NMR titration, U17 imino, Hill fit; conditions: 5 mM Mg2+, 50 mM KCl; 25 mM potassium phosphate, pH 6.2, room temperature, 50 μM RNA, Hill n 1.01; two bound signals summed
[3] = tested on: Gdn49 P1P2mut (A14G, G44A, GA) (RNA, riboswitch) GGUUUGCAGGACGGCCUGCAAACGCCUCUUUUCACCGGGGACGACCCCA; experiment: 1H-1D NMR titration, U17 imino, Hill fit; conditions: 5 mM Mg2+, 50 mM KCl; 25 mM potassium phosphate, pH 6.2, room temperature, 50 μM RNA, Hill n 1.38
[4] = tested on: Gdn23 wt (P1 wild-type, ACGA loop) (RNA, riboswitch) GGUUUGCAGGACGACCUGCAAAC; experiment: 1H-1D NMR titration, U17 imino, Hill fit; conditions: 5 mM Mg2+, 50 mM KCl; 25 mM potassium phosphate, pH 6.2, room temperature, 50 μM RNA, Hill n 1.16
[5] = tested on: Gdn13 wt (P2 wild-type, ACGG loop) (RNA, riboswitch) GGGGACGGCCCCA; experiment: 1H-1D NMR titration; conditions: 5 mM Mg2+, 50 mM KCl; 25 mM potassium phosphate, pH 6.2, room temperature; KD not detected; up to 8 mM Gdm+ (Table 2)
[6] = tested on: Gdn49 wt (aptamer wild-type, AG) (RNA, riboswitch) GGUUUGCAGGACGACCUGCAAACGCCUCUUUUCACCGGGGACGGCCCCA; experiment: 1H-1D NMR titration, U17 imino, Hill fit; conditions: 5 mM Mg2+, 50 mM KCl; 25 mM potassium phosphate, pH 6.2, room temperature, 50 μM RNA, Hill n 1.10; no binding without Mg2+
[7] = tested on: Gdn49 P1mut (A14G, GG) (RNA, riboswitch) GGUUUGCAGGACGGCCUGCAAACGCCUCUUUUCACCGGGGACGGCCCCA; experiment: 1H-1D NMR titration, U17 imino, Hill fit; conditions: 5 mM Mg2+, 50 mM KCl; 25 mM potassium phosphate, pH 6.2, room temperature, 50 μM RNA, Hill n 1.35

binding [1]: yes
KD [2]: 58.9 ± 8.1 µM
KD [3]: 165.0 ± 14.3 µM
KD [4]: 197.4 ± 8.8 µM
binding [5]: no
KD [6]: 133.4 ± 3.9 µM
KD [7]: 264.3 ± 27.8 µM
Structure (SMILES): N=C(N)N
